Assay results from US11773373B2, “Method for amplifying CD8+T cells and cell subpopulations thereof in-vitro” (Shanghai Innovative Chang'An Biological Technology Co., Ltd., priority 2017, dated 2023).

Tests used:
[1] = tested on: effector memory T cells (TEM); experiment: Proliferation of the effector memory subpopulation of CD8+ T cells of HIV-1 infected individuals; type: cell-based, human; conditions: 7 days
Text: (§1) 1. Peripheral blood mononuclear cells (PBMC) of HIV-1 infected individuals were isolated.
(§2) 2. CD8+ T cells were sorted using an EasySep™ Negative Selection Human CD8+ T cell Enrichment kit (Stemcell: 19053).
(§3) 3. The sorted CD8 cells were stained using Cell Proliferation Dye eFluor 670 (ebioscience: 65-0840-90).
(§4) 4. The cells were placed in a 96-well U-shaped bottom plate with 1×10^5 cells per well.
(§5) 5. The following stimulants and TLR agonists (invivoGen: tlr-kit1hw, human TLR1-9 Agonist KIT) were added in groups:
(§6) (The anti-human CD3 antibody and the anti-human CD28 antibody in the form of coated magnetic beads (CELLection Pan Mouse IgG Kit, Invitrogen: 11531D) were used to stimulate the cells, wherein the ratio of the cells to the magnetic beads was 1:1)
(§7) 6. The cells were cultured in the 96-well U-shaped bottom plate, and cultured in a cell incubator for 7 days.
(§8) 7. The cells were labeled with antibodies CD8 (BD: 561423), CD45RA (eBioscience: 25-0458-42) and CCR7 (eBioscience: 17-1979-42), and the influence of different TLR agonists on the proliferation of CD8+ T subpopulations (TNaive: Naive T cells, TCM: central memory T cells, TEM: effector memory T cells) was detected by a flow cytometer.

[2] = tested on: central memory CD8+ T cells (TCM); experiment: Proliferation of the central memory subpopulation of CD8+ T cells of HIV-1 infected individuals; type: cell-based, human; conditions: 7 days
Text: as §1, §2, §3, §4, §5, §6, §7, §8

[3] = tested on: effector memory T cells (TEM); experiment: Proliferation of the effector memory subpopulation of CD8+ T cells of healthy subjects; type: cell-based; conditions: in combination with anti-human CD3 antibody, compared with anti-human CD3 beads alone, 7 days
Description: (§9) 1. Peripheral blood mononuclear cells (PBMC) of healthy subjects were isolated.
(§10) 2. CD8+ T cells were sorted using an EasySep™ Negative Selection Human CD8+ T cell Enrichment kit (stem cell: 19053).
as §3, §4, §5
(§11) (The anti-human CD3 antibody used was magnetic beads coated with the antibody (CELLection Pan Mouse IgG Kit, Invitrogen: 11531D), wherein the ratio of the cells to the magnetic beads was 1:1)
as §7
as §8, with “by” for “by a”, “cytometry.” for “cytometer.”

[4] = tested on: central memory CD8+ T cells (TCM); experiment: Proliferation of the central memory subpopulation of CD8+ T cells of healthy subjects; type: cell-based; conditions: in combination with anti-human CD3 antibody, compared with anti-human CD3 beads alone, 7 days
Description: as §9, §10, §3, §4, §5, §11, §7
as §8, with “by” for “by a”, “cytometry.” for “cytometer.”

CD8+ T cells = experiment: Proliferation of sorted CD8+ T cells of healthy subjects (eFluor 670 dye, flow cytometry, 7 days); type: cell-based; conditions: in combination with anti-human CD3 antibody, compared with magnetic beads coated with anti-human CD3 antibody alone
Text: 1. Peripheral blood mononuclear cells (PBMC) of healthy subjects were isolated according to Example 1.
as §2, §3, §4, §5
(The anti-human CD3 antibody and the anti-human CD28 antibody used were magnetic beads coated with the antibodies (CELLection Pan Mouse IgG Kit, Invitrogen: 11531D), wherein the ratio of the cells to the magnetic beads was 1:1)
as §7
7. The proliferation of the CD8+ T cells was detected by a flow cytometer under the stimulation conditions of different TLR agonists. FIG. 1A is a diagram showing the proliferation of CD8 cells under the conditions of blank control (left panel) as well as an anti-human CD3 antibody and an anti-human CD28 antibody (right panel). FIG. 1B is a statistical chart showing the proliferation proportion of CD8 cells under different stimulation conditions.

[5] = added to anti-human CD3/28 beads, compared with anti-human CD3/28 beads
[6] = added to anti-human CD3 beads, compared with anti-human CD3 beads alone

Molecule | proliferation of effector memory T cells (TEM) [1, 5] | proliferation of effector memory T cells (TEM) [1, 6] | proliferation of central memory CD8+ T cells (TCM) [2, 5] | proliferation of central memory CD8+ T cells (TCM) [2, 6] | proliferation of effector memory T cells (TEM) [3] | proliferation of central memory CD8+ T cells (TCM) [4] | proliferation of CD8+ T cells (CD8+ T cells)
FSL-1 | further enhanced | more effectively stimulated | further enhanced | more effectively stimulated | effectively stimulated | effectively stimulated | effectively stimulated
Flagellin: TLR5 agonist, S. typhimurium Flagellin (invivoGen: tlrl-epstfla-5) (protein, UniProt P06179 2-495, looked up) Flagellin: AQVINTNSLSLLTQNNLNKSQSALGTAIERLSSGLRINSAKDDAAGQAIANRFTANIKGLTQASRNANDGISIAQTTEGALNEINNNLQRVRELAVQSANSTNSQSDLDSIQAEITQRLNEIDRVSGQTQFNGVKVLAQDNTLTIQVGANDGETIDIDLKQINSQTLGLDTLNVQQKYKVSDTAATVTGYADTTIALDNSTFKASATGLGGTDQKIDGDLKFDDTTGKYYAKVTVTGGTGKDGYYEVSVDKTNGEVTLAGGATSPLTGGLPATATEDVKNVQVANADLTEAKAALTAAGVTGTASVVKMSYTDNNGKTIDGGLAVKVGDDYYSATQNKDGSISINTTKYTADDGTSKTALNKLGGADGKTEVVSIGGKTYAASKAEGHNFKAQPDLAEAAATTTENPLQKIDAALAQVDTLRSDLGAVQNRFNSAITNLGNTVNNLTSARSRIEDSDYATEVSNMSRAQILQQAGTSVLAQANQVPQNVLSLLR | further enhanced | more effectively stimulated | further enhanced | more effectively stimulated | effectively stimulated | effectively stimulated | effectively stimulated
